The results in this text go back to patent publication US20170247326A1, “Substituted Pyrrolidine Carboxamide Compounds” (EPIZYME, INC., priority 2014, published 2017).

The target in one test is T1, SMYD2 (Homo sapiens, UniProt Q9NRG4).
T1 construct: Full length SMYD2 (NP_064582.2) was cloned; His6 (N, cleaved yes); FLAG (N); made in house; host or cells: Sf9 insect cells
T1 sequence (Q9NRG4 whole entry): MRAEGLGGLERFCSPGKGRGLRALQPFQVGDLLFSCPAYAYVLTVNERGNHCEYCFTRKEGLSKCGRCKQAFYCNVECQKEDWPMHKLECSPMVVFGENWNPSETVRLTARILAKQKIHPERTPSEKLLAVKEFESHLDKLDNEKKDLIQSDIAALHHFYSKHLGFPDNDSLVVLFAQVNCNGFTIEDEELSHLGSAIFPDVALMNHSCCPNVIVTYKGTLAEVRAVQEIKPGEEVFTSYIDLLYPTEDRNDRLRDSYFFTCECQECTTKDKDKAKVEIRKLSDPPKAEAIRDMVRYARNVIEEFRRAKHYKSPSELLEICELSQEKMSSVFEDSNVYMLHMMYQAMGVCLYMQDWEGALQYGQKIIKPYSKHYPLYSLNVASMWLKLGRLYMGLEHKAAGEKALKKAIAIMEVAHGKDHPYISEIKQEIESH
Briefly: SMYD2 biochemical assay (3H-SAM, biotinylated peptide substrate, Flashplate). Conditions: Table 3; average of n = 1 to n = 50; read-out: SMYD2 Biochem IC50. A digest of the protocol:
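Full-length His/FLAG-tagged SMYD2 (tag removed, Sf9-expressed) at 1.5 nM was preincubated with compound for 30 min at room temperature in Bicine pH 7.6 buffer with 2% DMSO. Reaction used 10 nM 3H-SAM and 60 nM biotinylated peptide, stopped with 600 uM cold SAM. Streptavidin-captured 3H-peptide counted; IC50 from 3- or 4-parameter fit.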
For `CC(C)N1C[C@H](C)[C@H](NC(=O)c2nc(C3CC3)no2)C1` (racemic) [compound 81, (±)-cis-3-cyclopropyl-N-[4-methyl-1-(propan-2-yl)pyrrolidin-3-yl]-1,2,4-oxadiazole-5-carboxamide], the IC50 is over 50 µM.

For `CC(C)N1C[C@H](C)[C@H](NC(=O)c2cc(C3CC3)c[nH]c2=O)C1` (racemic) [compound 82, (±)-cis-5-cyclopropyl-N-[4-methyl-1-(propan-2-yl)pyrrolidin-3-yl]-2-oxo-1,2-dihydropyridine-3-carboxamide], the half-inhibitory concentration (IC50) was found to be 13.6 µM. As to `CC(C)N1C[C@H](C)[C@H](NC(=O)c2ccc(C3CC3)[nH]c2=O)C1` (racemic) [compound 83, (±)-cis-6-cyclopropyl-N-[4-methyl-1-(propan-2-yl)pyrrolidin-3-yl]-2-oxo-1,2-dihydropyridine-3-carboxamide], the half-inhibitory concentration (IC50) was over 50 µM. As to `CC(C)N1C[C@H](C)[C@H](NC(=O)c2n[nH]c(C3CC3)n2)C1` (racemic) [compound 84, (±)-cis-5-cyclopropyl-N-[4-methyl-1-(propan-2-yl)pyrrolidin-3-yl]-1H-1,2,4-triazole-3-carboxamide], the half-maximal inhibitory concentration (IC50) was 36.8 µM. As to `CC(C)N1C[C@H](C)[C@H](NC(=O)c2cc(O)c3c(c2)OCC(=O)N3)C1` (racemic) [compound 85, (±)-cis-5-hydroxy-N-[4-methyl-1-(propan-2-yl)pyrrolidin-3-yl]-3-oxo-3,4-dihydro-2H-1,4-benzoxazine-7-carboxamide], the IC50 was over 50 µM.

Turning to `CC(C)N1C[C@@H](C)[C@@H](NC(=O)c2nc(C3CC3)ns2)C1` (racemic) [compound 86, (±)-cis-3-cyclopropyl-N-[4-methyl-1-(propan-2-yl)pyrrolidin-3-yl]-1,2,4-thiadiazole-5-carboxamide], the half-maximal inhibitory concentration (IC50) was over 50 µM. `CC(C)N1C[C@H](C)[C@H](NC(=O)c2nsc(C3CC3)n2)C1` (racemic) [compound 88, (±)-cis-5-cyclopropyl-N-[4-methyl-1-(propan-2-yl)pyrrolidin-3-yl]-1,2,4-thiadiazole-3-carboxamide]: the IC50 was over 50 µM. The same measure, in the same setting: the same measure for `CC(C)N1C[C@@H](C)[C@@H](NC(=O)c2cc(C3CC3)n(C)n2)C1` (racemic) [compound 89, (±)-cis-5-cyclopropyl-1-methyl-N-[4-methyl-1-(propan-2-yl)pyrrolidin-3-yl]-1H-pyrazole-3-carboxamide]: over 50 µM; for `CC(C)N1C[C@H](C)[C@H](NC(=O)c2cncc(C3CC3)c2)C1` (racemic) [compound 90, (±)-cis-5-cyclopropyl-N-[4-methyl-1-(propan-2-yl)pyrrolidin-3-yl]pyridine-3-carboxamide]: over 50 µM. Consider `CC(C)N1C[C@H](C)[C@H](NC(=O)c2cc(C3CC3)ns2)C1` (racemic) [compound 91, (±)-cis-3-cyclopropyl-N-[4-methyl-1-(propan-2-yl)pyrrolidin-3-yl]-1,2-thiazole-5-carboxamide], for which the IC50 is over 50 µM. Still for that read-out and setting: the same measure for `CC(C)N1C[C@H](C)[C@H](NC(=O)c2csnc2C2CC2)C1` (racemic) [compound 92, (±)-cis-3-cyclopropyl-N-[4-methyl-1-(propan-2-yl)pyrrolidin-3-yl]-1,2-thiazole-4-carboxamide]: 19.6 µM; for `CC(C)N1C[C@H](C)[C@H](NC(=O)c2cc(C3CC3)sn2)C1` (racemic) [compound 93, (±)-cis-5-cyclopropyl-N-[4-methyl-1-(propan-2-yl)pyrrolidin-3-yl]-1,2-thiazole-3-carboxamide]: 0.776 µM; for `CC(C)N1C[C@H](C)[C@H](NC(=O)c2cc(C3CCC3)cnn2)C1` (racemic) [compound 94, (±)-cis-5-cyclobutyl-N-[4-methyl-1-(propan-2-yl)pyrrolidin-3-yl]pyridazine-3-carboxamide]: over 50 µM. Take `CCc1cnnc(C(=O)N[C@@H]2CN(C(C)C)C[C@@H]2C)c1` (racemic) [compound 96, (±)-cis-5-ethyl-N-[4-methyl-1-(propan-2-yl)pyrrolidin-3-yl]pyridazine-3-carboxamide]: the half-maximal inhibitory concentration (IC50) amounted to 5.09 µM. In the case of `C[C@@H]1CN(Cc2ccc(OCc3ccccc3)cc2)C[C@H]1NC(=O)c1cn(C2CC2)nn1` (racemic) [compound 97, (±)-trans-N-(1-{[4-(benzyloxy)phenyl]methyl}-4-methylpyrrolidin-3-yl)-1-cyclopropyl-1H-1,2,3-triazole-4-carboxamide], the IC50 came out at 10.5 µM. With `C[C@H]1CN(Cc2ccccc2)C[C@H]1NC(=O)c1cc(C2CC2)cnn1` (racemic) [compound 99, (±)-cis-N-(1-benzyl-4-methylpyrrolidin-3-yl)-5-cyclopropylpyridazine-3-carboxamide], the IC50 worked out at 0.574 µM.

For the compound `CCN1C[C@H](C)[C@H](NC(=O)c2cc(C3CC3)cnn2)C1` (racemic) [compound 100, (±)-cis-5-cyclopropyl-N-(1-ethyl-4-methylpyrrolidin-3-yl)pyridazine-3-carboxamide], the IC50 was determined as 0.611 µM. With `CC(C)c1coc(C(=O)N[C@@H]2CN(C(C)C)C[C@@H]2C)n1` (racemic) [compound 102, (±)-cis-N-[4-methyl-1-(propan-2-yl)pyrrolidin-3-yl]-4-(propan-2-yl)-1,3-oxazole-2-carboxamide], the half-inhibitory concentration (IC50) is over 50 µM. `C[C@H]1CN(C)C[C@H]1NC(=O)c1cc(C2CC2)cnn1` (racemic) [compound 103, (±)-cis-5-cyclopropyl-N-(1,4-dimethylpyrrolidin-3-yl)pyridazine-3-carboxamide]: the IC50 amounted to 1.67 µM. With `C[C@@H]1CN(Cc2ccc(OCc3ccccc3)cc2)C[C@@H]1NC(=O)c1cc(C2CC2)cnn1` (racemic) [compound 104, (±)-cis-N-(1-{[4-(benzyloxy)phenyl]methyl}-4-methylpyrrolidin-3-yl)-5-cyclopropylpyridazine-3-carboxamide], the half-inhibitory concentration (IC50) amounted to 0.0917 µM. The same measure, in the same setting: the same measure for `CC(C)N1C[C@H](C)[C@H](NC(=O)c2cc(C3CC3)ccn2)C1` (racemic) [compound 105, (±)-cis-4-cyclopropyl-N-[4-methyl-1-(propan-2-yl)pyrrolidin-3-yl]pyridine-2-carboxamide]: 0.694 µM; for `C[C@H]1CN(Cc2ccc(OCc3ccccc3)cc2)C[C@@H]1NC(=O)c1cc(C2CC2)cnn1` (racemic) [compound 107, (±)-trans-N-(1-{[4-(benzyloxy)phenyl]methyl}-4-methylpyrrolidin-3-yl)-5-cyclopropylpyridazine-3-carboxamide]: 2.7 µM. On the same count and under the same terms, under `CC(C)N1C[C@@H](C)[C@H](NC(=O)c2ccc(C3CC3)nn2)C1` (racemic) [compound 108, (±)-trans-6-cyclopropyl-N-[4-methyl-1-(propan-2-yl)pyrrolidin-3-yl]pyridazine-3-carboxamide] stands over 50 µM; under `CC(C)N1C[C@H](C)[C@H](NC(=O)c2ccc(C3CC3)nn2)C1` (racemic) [compound 109, (±)-cis-6-cyclopropyl-N-[4-methyl-1-(propan-2-yl)pyrrolidin-3-yl]pyridazine-3-carboxamide], over 50 µM; under `CC(C)N1C[C@@H](C)[C@H](NC(=O)c2cc(C3CC3)cnn2)C1` (racemic) [compound 111, (±)-trans-5-cyclopropyl-N-[4-methyl-1-(propan-2-yl)pyrrolidin-3-yl]pyridazine-3-carboxamide], 12 µM. Regarding `CC(C)c1cnnc(C(=O)N[C@@H]2CN(C(C)C)C[C@@H]2C)c1` (racemic) [compound 118, (±)-cis-5-isopropyl-N-(1-isopropyl-4-methylpyrrolidin-3-yl)pyridazine-3-carboxamide], the half-inhibitory concentration (IC50) came out at 10.4 µM.

The same test, now with this note: Table 4; average of n = 1 to n = 50; read-out: SMYD2 Biochem IC50.
As to `CC(C)c1cnnc(C(=O)N[C@@H]2CN(C(C)C)C[C@@H]2C)c1` (racemic) [compound 124, rac-5-isopropyl-N-((3R,4R)-1-isopropyl-4-methylpyrrolidin-3-yl)pyridazine-3-carboxamide], the IC50 is 10.4 µM. As to `C[C@H]1CN(S(=O)(=O)CCCN)C[C@H]1NC(=O)c1cc(C2CC2)cnn1` (racemic) [compound 126, rac-N-((3R,4R)-1-((3-aminopropyl)sulfonyl)-4-methylpyrrolidin-3-yl)-5-cyclopropylpyridazine-3-carboxamide], the IC50 is over 50 µM. On the same count and under the same terms, under `C[C@H]1CN(S(=O)(=O)CCN)C[C@H]1NC(=O)c1cc(C2CC2)cnn1` (racemic) [compound 127, rac-N-((3R,4R)-1-((2-aminoethyl)sulfonyl)-4-methylpyrrolidin-3-yl)-5-cyclopropylpyridazine-3-carboxamide] stands over 50 µM. As to `CNCCS(=O)(=O)N1C[C@H](C)[C@H](NC(=O)c2cc(C3CC3)cnn2)C1` (racemic) [compound 128, rac-5-cyclopropyl-N-((3R,4R)-4-methyl-1-((2-(methylamino)ethyl)sulfonyl)pyrrolidin-3-yl)pyridazine-3-carboxamide], the half-maximal inhibitory concentration (IC50) was over 50 µM. Still for that read-out and setting: the same measure for `CC(C)N1C[C@H](CO)[C@H](NC(=O)c2cc(C3CC3)cnn2)C1` (racemic) [compound 129, rac-5-cyclopropyl-N-((3R,4R)-4-(hydroxymethyl)-1-isopropylpyrrolidin-3-yl)pyridazine-3-carboxamide]: 0.77 µM; for `CC(C)N1C[C@@H](N(C)C(=O)c2cc(C3CC3)cnn2)[C@@H](C)C1` (racemic) [compound 130, rac-5-cyclopropyl-N-((3R,4R)-1-isopropyl-4-methylpyrrolidin-3-yl)-N-methylpyridazine-3-carboxamide]: 6.4 µM. Regarding `C[C@H]1CN(Cc2ccc(OCc3ccccc3)cc2)C[C@@H]1NC(=O)c1cc(C2CC2)cnn1` (racemic) [compound 132, rac-N-((3R,4S)-1-(4-(benzyloxy)benzyl)-4-methylpyrrolidin-3-yl)-5-cyclopropylpyridazine-3-carboxamide], the half-maximal inhibitory concentration (IC50) turned out to be 2.7 µM.

The IC50 is the point on the concentration scale where inhibition reaches its midpoint.
